Our source for the inhibition values is article PMC4076210, “Discovery of Novel AKT Inhibitors with Enhanced Anti-Tumor Effects in Combination with the MEK Inhibitor” (PLoS ONE, 2014).

Common to all, as to assay: Kinase panel
What all share (assay type): biochemical

One assay deals with T1, Fyn(h) (Homo sapiens, UniProt P06241).
T1 construct: purchased Millipore KinaseProfiler

The target in a further assay is T2, IRAK4(h) (Homo sapiens, UniProt Q9NWZ3).
T2 construct: purchased Millipore KinaseProfiler
T2 sequence (Q9NWZ3 1-460): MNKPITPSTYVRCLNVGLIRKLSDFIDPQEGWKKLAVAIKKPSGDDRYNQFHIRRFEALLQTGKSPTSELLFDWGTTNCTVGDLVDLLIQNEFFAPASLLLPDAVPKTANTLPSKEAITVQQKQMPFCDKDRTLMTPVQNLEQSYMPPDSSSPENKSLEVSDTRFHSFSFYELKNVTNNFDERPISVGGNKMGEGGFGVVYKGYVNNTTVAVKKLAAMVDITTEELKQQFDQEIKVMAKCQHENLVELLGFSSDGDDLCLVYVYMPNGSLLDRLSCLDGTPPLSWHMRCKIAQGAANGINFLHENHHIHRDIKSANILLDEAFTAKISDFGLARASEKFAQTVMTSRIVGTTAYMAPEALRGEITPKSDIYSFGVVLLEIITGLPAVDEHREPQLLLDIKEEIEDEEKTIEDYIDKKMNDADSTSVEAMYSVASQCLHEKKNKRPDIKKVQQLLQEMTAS

The next assay deals with T3, TAO3(h) (Homo sapiens, UniProt Q9H2K8).
T3 construct: purchased Millipore KinaseProfiler
T3 sequence (Q9H2K8 1-898): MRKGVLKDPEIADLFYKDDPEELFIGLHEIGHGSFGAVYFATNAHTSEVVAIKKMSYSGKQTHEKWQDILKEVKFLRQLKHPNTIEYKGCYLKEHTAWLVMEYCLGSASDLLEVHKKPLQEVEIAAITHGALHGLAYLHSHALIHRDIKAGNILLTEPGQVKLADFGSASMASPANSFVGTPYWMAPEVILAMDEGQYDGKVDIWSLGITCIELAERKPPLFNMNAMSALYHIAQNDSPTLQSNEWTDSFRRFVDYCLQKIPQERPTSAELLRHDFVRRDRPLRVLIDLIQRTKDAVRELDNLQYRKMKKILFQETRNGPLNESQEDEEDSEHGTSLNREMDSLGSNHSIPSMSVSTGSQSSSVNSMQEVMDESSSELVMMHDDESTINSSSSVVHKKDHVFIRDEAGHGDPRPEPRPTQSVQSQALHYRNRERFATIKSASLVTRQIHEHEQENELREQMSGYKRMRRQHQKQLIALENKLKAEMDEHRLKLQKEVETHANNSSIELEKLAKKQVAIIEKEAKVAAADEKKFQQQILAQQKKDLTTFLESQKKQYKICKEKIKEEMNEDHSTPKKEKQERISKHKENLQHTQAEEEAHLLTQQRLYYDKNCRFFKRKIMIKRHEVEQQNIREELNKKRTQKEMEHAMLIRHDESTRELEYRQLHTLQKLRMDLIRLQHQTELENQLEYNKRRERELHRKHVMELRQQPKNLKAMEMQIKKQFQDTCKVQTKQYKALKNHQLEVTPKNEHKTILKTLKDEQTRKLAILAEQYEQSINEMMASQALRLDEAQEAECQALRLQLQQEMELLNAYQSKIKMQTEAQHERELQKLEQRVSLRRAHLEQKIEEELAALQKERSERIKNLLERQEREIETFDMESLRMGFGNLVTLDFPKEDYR

Another assay has as its target T4, PKCζ(h) (Homo sapiens, UniProt Q05513).
T4 construct: purchased Millipore KinaseProfiler
T4 sequence (Q05513 1-592): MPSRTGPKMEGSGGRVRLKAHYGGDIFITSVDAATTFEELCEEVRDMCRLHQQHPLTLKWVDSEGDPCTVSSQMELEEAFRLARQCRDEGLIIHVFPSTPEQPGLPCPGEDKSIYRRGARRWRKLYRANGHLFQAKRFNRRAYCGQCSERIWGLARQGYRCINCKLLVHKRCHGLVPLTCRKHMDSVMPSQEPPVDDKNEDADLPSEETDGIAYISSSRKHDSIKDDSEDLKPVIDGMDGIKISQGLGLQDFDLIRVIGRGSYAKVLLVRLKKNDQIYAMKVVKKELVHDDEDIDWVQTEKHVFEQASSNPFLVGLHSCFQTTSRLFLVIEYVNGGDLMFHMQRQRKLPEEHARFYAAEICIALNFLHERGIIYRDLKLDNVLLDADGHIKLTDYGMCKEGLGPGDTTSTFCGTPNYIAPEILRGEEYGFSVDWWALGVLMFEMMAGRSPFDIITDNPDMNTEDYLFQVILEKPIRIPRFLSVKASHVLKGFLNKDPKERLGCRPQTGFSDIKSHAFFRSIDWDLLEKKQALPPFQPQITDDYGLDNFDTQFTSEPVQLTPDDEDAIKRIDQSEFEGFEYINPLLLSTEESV

For a further assay, the target named is T5, cKit(V560G)(h) (Homo sapiens, UniProt P10721, V560G).
T5 construct: purchased Millipore KinaseProfiler

In the next assay the target is T6, SAPK3(h) (Homo sapiens, UniProt P53778).
T6 construct: purchased Millipore KinaseProfiler
T6 sequence (P53778 1-367): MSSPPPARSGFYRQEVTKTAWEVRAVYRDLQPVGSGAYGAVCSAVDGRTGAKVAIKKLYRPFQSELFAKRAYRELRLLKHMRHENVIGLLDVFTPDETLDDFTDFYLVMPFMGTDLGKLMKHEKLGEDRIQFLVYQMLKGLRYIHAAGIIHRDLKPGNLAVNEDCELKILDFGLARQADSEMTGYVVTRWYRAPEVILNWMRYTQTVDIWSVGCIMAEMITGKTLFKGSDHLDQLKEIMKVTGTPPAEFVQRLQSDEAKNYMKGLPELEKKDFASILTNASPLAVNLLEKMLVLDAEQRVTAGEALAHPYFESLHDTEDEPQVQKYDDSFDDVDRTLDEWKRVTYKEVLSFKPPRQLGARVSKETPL

For another assay, the target named is T7, MST3(h) (Homo sapiens, UniProt Q9Y6E0).
T7 construct: purchased Millipore KinaseProfiler

Each structure is given as a SMILES string. Where two headings read alike, the source gives them in different places.

T7 sequence (Q9Y6E0 whole entry): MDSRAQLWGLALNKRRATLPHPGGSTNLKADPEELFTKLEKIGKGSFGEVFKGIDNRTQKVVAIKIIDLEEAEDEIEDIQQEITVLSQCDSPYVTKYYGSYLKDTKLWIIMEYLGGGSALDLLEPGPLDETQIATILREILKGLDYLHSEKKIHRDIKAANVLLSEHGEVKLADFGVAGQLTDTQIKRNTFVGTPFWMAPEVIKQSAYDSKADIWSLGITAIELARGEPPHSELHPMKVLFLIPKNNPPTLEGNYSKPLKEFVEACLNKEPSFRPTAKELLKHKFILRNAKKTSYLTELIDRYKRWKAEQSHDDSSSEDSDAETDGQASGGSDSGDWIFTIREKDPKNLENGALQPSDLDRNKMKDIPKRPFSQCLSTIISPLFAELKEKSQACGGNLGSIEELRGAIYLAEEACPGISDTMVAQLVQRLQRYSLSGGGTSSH
T5 sequence (P10721 26-976 V560G): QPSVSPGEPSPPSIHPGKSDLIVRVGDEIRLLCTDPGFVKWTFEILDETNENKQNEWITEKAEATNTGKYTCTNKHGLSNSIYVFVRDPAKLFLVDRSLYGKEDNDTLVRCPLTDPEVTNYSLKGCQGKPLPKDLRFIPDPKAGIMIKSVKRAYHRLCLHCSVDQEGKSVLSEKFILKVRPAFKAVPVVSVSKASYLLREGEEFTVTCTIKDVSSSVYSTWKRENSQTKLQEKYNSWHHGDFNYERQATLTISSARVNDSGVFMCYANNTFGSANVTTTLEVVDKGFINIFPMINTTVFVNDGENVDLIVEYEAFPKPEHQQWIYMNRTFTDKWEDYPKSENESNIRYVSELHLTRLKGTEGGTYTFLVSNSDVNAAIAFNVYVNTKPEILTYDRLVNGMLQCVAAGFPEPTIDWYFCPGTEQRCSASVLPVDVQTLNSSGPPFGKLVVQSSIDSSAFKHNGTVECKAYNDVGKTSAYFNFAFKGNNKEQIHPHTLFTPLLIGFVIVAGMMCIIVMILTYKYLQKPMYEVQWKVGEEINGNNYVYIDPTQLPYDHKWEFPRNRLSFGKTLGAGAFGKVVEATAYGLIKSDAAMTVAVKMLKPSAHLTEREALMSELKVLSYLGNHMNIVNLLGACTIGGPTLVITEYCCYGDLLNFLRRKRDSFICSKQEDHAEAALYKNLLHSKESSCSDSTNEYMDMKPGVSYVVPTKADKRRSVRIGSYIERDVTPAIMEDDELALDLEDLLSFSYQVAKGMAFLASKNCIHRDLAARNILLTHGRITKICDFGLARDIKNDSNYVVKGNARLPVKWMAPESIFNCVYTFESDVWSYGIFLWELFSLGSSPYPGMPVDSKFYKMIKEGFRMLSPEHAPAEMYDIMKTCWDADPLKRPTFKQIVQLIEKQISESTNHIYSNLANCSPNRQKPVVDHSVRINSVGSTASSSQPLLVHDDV
T1 sequence (P06241 whole entry): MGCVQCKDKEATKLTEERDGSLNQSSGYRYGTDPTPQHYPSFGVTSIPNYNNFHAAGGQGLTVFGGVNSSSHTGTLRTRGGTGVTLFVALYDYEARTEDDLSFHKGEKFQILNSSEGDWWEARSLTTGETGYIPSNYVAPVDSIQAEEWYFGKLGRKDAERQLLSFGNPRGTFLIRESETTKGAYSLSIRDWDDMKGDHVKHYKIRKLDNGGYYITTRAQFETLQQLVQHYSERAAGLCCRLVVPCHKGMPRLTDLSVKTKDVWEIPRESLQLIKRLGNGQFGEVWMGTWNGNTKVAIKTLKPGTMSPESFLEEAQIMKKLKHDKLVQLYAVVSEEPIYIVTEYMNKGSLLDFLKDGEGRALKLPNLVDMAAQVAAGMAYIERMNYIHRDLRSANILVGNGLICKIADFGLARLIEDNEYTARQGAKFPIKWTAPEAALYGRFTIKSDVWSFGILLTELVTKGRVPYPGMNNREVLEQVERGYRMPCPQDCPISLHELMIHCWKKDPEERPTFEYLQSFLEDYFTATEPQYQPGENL

On to `Cn1ncc(Cl)c1-c1cc(C(=O)N[C@H](CN)Cc2cccc(F)c2)sc1Cl` [GSK2110183], for which the inhibition (as a rule, the relative decrease from the control value, in per cent) at 0.5 µM at Fyn(h) was -3%; on IRAK4(h), -15%; against TAO3(h) it was -2%; against PKCζ(h) it was -4%; at cKit(V560G)(h), -6%; on SAPK3(h), -6%. For the same compound, at MST3(h), the inhibition at 0.5 µM turned out to be 14%. Also, the inhibition at 10 µM against Fyn(h) was 12%; on IRAK4(h), -5%; against TAO3(h), 24%; against PKCζ(h) it was 37%; at cKit(V560G)(h) it was 4%; against SAPK3(h) it was 20%. Besides, the inhibition at 10 µM at MST3(h) turned out to be 50%.

Turning to `Cn1ncc(Cl)c1-c1cc(C(=O)N[C@H](CN)Cc2ccc(F)c(F)c2)oc1Cl` [GSK2141795], the inhibition at 0.5 µM at Fyn(h) (0.5 µM, read-out: % Inhibition) is -8%; on IRAK4(h) (0.5 µM, read-out: % Inhibition) it was -12%; at TAO3(h) (0.5 µM, read-out: % Inhibition) it was -16%; at PKCζ(h) (0.5 µM, read-out: % Inhibition) it was 5%; on cKit(V560G)(h) (0.5 µM, read-out: % Inhibition), -25%; on SAPK3(h) (0.5 µM, read-out: % Inhibition), -14%. Besides, at MST3(h) (0.5 µM, read-out: % Inhibition), the inhibition at 0.5 µM came out at 10%. Also, the inhibition at 10 µM at Fyn(h) (10 µM, read-out: % Inhibition) is 10%; on IRAK4(h) (10 µM, read-out: % Inhibition), 0%; on TAO3(h) (10 µM, read-out: % Inhibition), -4%; on PKCζ(h) (10 µM, read-out: % Inhibition), 74%; on cKit(V560G)(h) (10 µM, read-out: % Inhibition) it was 16%; at SAPK3(h) (10 µM, read-out: % Inhibition), 14%. In addition, the inhibition at 10 µM on MST3(h) (10 µM, read-out: % Inhibition) turned out to be 63%.
